# Active and inactive are the calls of the source. No cut-off for these calls is given here.
# Legend:
# [1] = Cytotoxicity against African green monkey Vero cells assessed as cell viability after 3 days by XTT assay; format: cell-based; conditions: chlorocebus sabaeus
# [2] = test system: Mycobacterium tuberculosis; assay: Antimycobacterial activity against Mycobacterium tuberculosis H37Ra assessed as inhibition of mycobacterial replication at 200 ug/ml after 6 days by microplate Alamar blue assay; format: functional; conditions: 144 h
# [3] = test system: Mycobacterium tuberculosis; assay: Antimycobacterial activity against Mycobacterium tuberculosis H37Ra assessed as inhibition of mycobacterial replication at 50 ug/ml after 6 days by microplate Alamar blue assay; format: functional; conditions: 144 h
# [4] = test system: Mycobacterium tuberculosis; assay: Antimycobacterial activity against Mycobacterium tuberculosis H37Ra assessed as inhibition of mycobacterial replication after 6 days by microplate Alamar blue assay; format: functional; conditions: 144 h
# Mycobacterium avium = assay: Antimycobacterial activity against Mycobacterium avium ATCC 25291 assessed as inhibition of mycobacterial replication after 6 days by microplate Alamar blue assay; format: functional, Mycobacterium avium subsp. avium ATCC 25291; conditions: ATCC 25291, 144 h
# Mus musculus [5] = assay: Toxicity in BALB/c mouse infected with Mycobacterium tuberculosis H37Ra assessed as change in amylase level in serum at 6.25 to 25 mg/kg, po administered for 2 weeks started on day 4 post bacterial infection; format: organism-based; conditions: in vivo, 336 h
# Mus musculus [6] = assay: Toxicity in BALB/c mouse infected with Mycobacterium tuberculosis H37Ra assessed as change in amylase level in serum at 6.25 to 25 mg/kg, po administered for 2 weeks started on day 4 post bacterial infection in presence of isoniazid; format: organism-based; conditions: in vivo, 336 h
# Mus musculus [7] = assay: Toxicity in BALB/c mouse infected with Mycobacterium tuberculosis H37Ra assessed as change in calcium level in serum at 6.25 to 25 mg/kg, po administered for 2 weeks started on day 4 post bacterial infection in presence of isoniazid; format: organism-based; conditions: in vivo, 336 h
# Mus musculus [8] = assay: Toxicity in BALB/c mouse infected with Mycobacterium tuberculosis H37Ra assessed as weight loss at 6.25 to 25 mg/kg, po administered for 2 weeks started on day 4 post bacterial infection in presence of isoniazid; format: organism-based; conditions: in vivo, 336 h
# [9] = test system: Mycobacterium tuberculosis; assay: Antimycobacterial activity against Mycobacterium tuberculosis H37Ra assessed as inhibition of mycobacterial replication at 6.25 ug/ml after 6 days by microplate Alamar blue assay in presence of isoniazid; format: functional; conditions: 144 h
# Mus musculus [10] = assay: Toxicity in BALB/c mouse infected with Mycobacterium tuberculosis H37Ra assessed as change in creatinine level in serum at 6.25 to 25 mg/kg, po administered for 2 weeks started on day 4 post bacterial infection in presence of isoniazid; format: organism-based; conditions: in vivo, 336 h
# Mus musculus [11] = assay: Toxicity in BALB/c mouse infected with Mycobacterium tuberculosis H37Ra assessed as change in phosphate level in serum at 6.25 to 25 mg/kg, po administered for 2 weeks started on day 4 post bacterial infection; format: organism-based; conditions: in vivo, 336 h
# Mus musculus [12] = assay: Toxicity in BALB/c mouse infected with Mycobacterium tuberculosis H37Ra assessed as change in calcium level in serum at 6.25 to 25 mg/kg, po administered for 2 weeks started on day 4 post bacterial infection; format: organism-based; conditions: in vivo, 336 h
# Mus musculus [13] = assay: Toxicity in BALB/c mouse infected with Mycobacterium tuberculosis H37Ra at 6.25 to 25 mg/kg, po administered for 2 weeks started on day 4 post bacterial infection by necroscopy; format: organism-based; conditions: in vivo, 336 h
# Mus musculus [14] = assay: Toxicity in BALB/c mouse infected with Mycobacterium tuberculosis H37Ra assessed as behavioral changes at 6.25 to 25 mg/kg, po administered for 2 weeks started on day 4 post bacterial infection in presence of isoniazid; format: organism-based; conditions: in vivo, 336 h
# Mus musculus [15] = assay: Toxicity in BALB/c mouse infected with Mycobacterium tuberculosis H37Ra assessed as change in urea level in serum at 6.25 to 25 mg/kg, po administered for 2 weeks started on day 4 post bacterial infection; format: organism-based; conditions: in vivo, 336 h
# Mus musculus [16] = assay: Toxicity in BALB/c mouse infected with Mycobacterium tuberculosis H37Ra assessed as change in cholesterol level in serum at 6.25 to 25 mg/kg, po administered for 2 weeks started on day 4 post bacterial infection in presence of isoniazid; format: organism-based; conditions: in vivo, 336 h
# [17] = test system: Mycobacterium tuberculosis; assay: Antimycobacterial activity against Mycobacterium tuberculosis H37Ra infected in BALB/c mouse assessed as reduction of bacterial load in liver at 25 mg/kg, po administered for 2 weeks started on day 4 post bacterial infection measured 3 days post last dose; format: functional
# Mus musculus [18] = assay: Toxicity in BALB/c mouse infected with Mycobacterium tuberculosis H37Ra assessed as change in alkaline phosphatase level in serum at 6.25 to 25 mg/kg, po administered for 2 weeks started on day 4 post bacterial infection in presence of isoniazid; format: organism-based; conditions: in vivo, 336 h
# Mus musculus [19] = assay: Toxicity in BALB/c mouse infected with Mycobacterium tuberculosis H37Ra assessed as change in cholesterol level in serum at 6.25 to 25 mg/kg, po administered for 2 weeks started on day 4 post bacterial infection; format: organism-based; conditions: in vivo, 336 h
# [20] = test system: Mycobacterium tuberculosis; assay: Antimycobacterial activity against Mycobacterium tuberculosis H37Ra assessed as inhibition of mycobacterial replication at 6.25 ug/ml after 6 days by microplate Alamar blue assay in absence of isoniazid; format: functional, organism-based
# Mus musculus [21] = assay: Toxicity in BALB/c mouse infected with Mycobacterium tuberculosis H37Ra assessed as gross necroscopy changes at 6.25 to 25 mg/kg, po administered for 2 weeks started on day 4 post bacterial infection; format: organism-based; conditions: in vivo, 336 h
# Mus musculus [22] = assay: Toxicity in BALB/c mouse infected with Mycobacterium tuberculosis H37Ra assessed as change in creatinine level in serum at 6.25 to 25 mg/kg, po administered for 2 weeks started on day 4 post bacterial infection; format: organism-based; conditions: in vivo, 336 h
# Mus musculus [23] = assay: Toxicity in BALB/c mouse infected with Mycobacterium tuberculosis H37Ra at 6.25 to 25 mg/kg, po administered for 2 weeks started on day 4 post bacterial infection by necroscopy in presence of isoniazid; format: organism-based; conditions: in vivo, 336 h
# [24] = test system: Mycobacterium tuberculosis; assay: Antimycobacterial activity against Mycobacterium tuberculosis H37Ra infected in BALB/c mouse assessed as reduction of bacterial load in spleen at 25 mg/kg, po administered for 2 weeks started on day 4 post bacterial infection measured 3 days post last dose; format: functional
# Mus musculus [25] = assay: Toxicity in BALB/c mouse infected with Mycobacterium tuberculosis H37Ra assessed as weight loss at 6.25 to 25 mg/kg, po administered for 2 weeks started on day 4 post bacterial infection; format: organism-based; conditions: in vivo, 336 h
# [26] = test system: Mycobacterium tuberculosis; assay: Antimycobacterial activity against Mycobacterium tuberculosis H37Ra infected in BALB/c mouse assessed as reduction of bacterial load in lung at 25 mg/kg, po administered for 2 weeks started on day 4 post bacterial infection measured 3 days post last dose; format: functional
# Mus musculus [27] = assay: Toxicity in BALB/c mouse infected with Mycobacterium tuberculosis H37Ra assessed as behavioral changes at 6.25 to 25 mg/kg, po administered for 2 weeks started on day 4 post bacterial infection; format: organism-based; conditions: in vivo, 336 h
# Mus musculus [28] = assay: Toxicity in BALB/c mouse infected with Mycobacterium tuberculosis H37Ra assessed as change in phosphate level in serum at 6.25 to 25 mg/kg, po administered for 2 weeks started on day 4 post bacterial infection in presence of isoniazid; format: organism-based; conditions: in vivo, 336 h
# Mus musculus [29] = assay: Toxicity in BALB/c mouse infected with Mycobacterium tuberculosis H37Ra assessed as change in urea level in serum at 6.25 to 25 mg/kg, po administered for 2 weeks started on day 4 post bacterial infection in presence of isoniazid; format: organism-based; conditions: in vivo, 336 h
# [30] = test system: Mycobacterium tuberculosis; assay: Antimycobacterial activity against Mycobacterium tuberculosis H37Ra infected in BALB/c mouse assessed as reduction of bacterial load in spleen at 12.5 mg/kg, po administered for 2 weeks started on day 4 post bacterial infection measured 3 days post last dose co-treated with 1 mg/kg, po isoniazid; format: functional
# Mus musculus [31] = assay: Toxicity in BALB/c mouse infected with Mycobacterium tuberculosis H37Ra assessed as change in alkaline phosphatase level in serum at 6.25 to 25 mg/kg, po administered for 2 weeks started on day 4 post bacterial infection; format: organism-based; conditions: in vivo, 336 h
# [32] = test system: Mycobacterium tuberculosis; assay: Ratio MIC90 for Mycobacterium tuberculosis H37Ra in presence of isoniazid to MIC90 for Mycobacterium tuberculosis H37Ra in absence of isoniazid; format: functional
# [33] = test system: Mycobacterium tuberculosis; assay: Antimycobacterial activity against Mycobacterium tuberculosis H37Ra infected in BALB/c mouse assessed as reduction of bacterial load in lung at 12.5 mg/kg, po administered for 2 weeks started on day 4 post bacterial infection measured 3 days post last dose co-treated with 1 mg/kg, po isoniazid; format: functional
# [34] = test system: Mycobacterium tuberculosis; assay: Antimycobacterial activity against Mycobacterium tuberculosis H37Ra infected in BALB/c mouse assessed as reduction of bacterial load in lung at 1 mg/kg, po administered for 2 weeks started on day 4 post bacterial infection measured 3 days post last dose; format: functional, organism-based
# [35] = test system: Mycobacterium tuberculosis; assay: Antimycobacterial activity against Mycobacterium tuberculosis H37Ra infected in BALB/c mouse assessed as reduction of bacterial load in liver at 1 mg/kg, po administered for 2 weeks started on day 4 post bacterial infection measured 3 days post last dose; format: functional, organism-based
# [36] = test system: Mycobacterium tuberculosis; assay: Antimycobacterial activity against Mycobacterium tuberculosis H37Ra infected in BALB/c mouse assessed as reduction of bacterial load in spleen at 1 mg/kg, po administered for 2 weeks started on day 4 post bacterial infection measured 3 days post last dose; format: functional, organism-based
# [37] = test system: Mycobacterium tuberculosis; assay: Antimycobacterial activity against Mycobacterium tuberculosis H37Ra assessed as inhibition of mycobacterial replication at 0.05 ug/ml after 6 days by microplate Alamar blue assay in absence of isoniazid; format: functional; conditions: 144 h
smiles,measurement,setting,value
CCCCCCCCCCCCC#Cc1c[nH]c(=O)nc1N,CC50 at 72 h,[1],> 200 mg/L
CCCCCCCCC#Cc1c[nH]c(=O)nc1N,inhibition at 200 µg/mL,[2],100%
same,inhibition at 50 µg/mL,[3],50%
same,CC50 at 72 h,[1],> 200 mg/L
same,MIC50,[4],50 mg/L
CC[C@H]1OC(=O)[C@H](C)[C@@H](O[C@H]2C[C@@](C)(OC)[C@@H](O)[C@H](C)O2)[C@H](C)[C@@H](O[C@@H]2O[C@H](C)C[C@H](N(C)C)[C@H]2O)[C@](C)(OC)C[C@@H](C)C(=O)[C@H](C)[C@@H](O)[C@]1(C)O [CLARITHROMYCIN],MIC90,Mycobacterium avium,2 mg/L
Nc1nc(=O)[nH]cc1C#Cc1ccccc1,Activity,Mus musculus [5],Non-toxic
same,Activity,Mus musculus [6],Non-toxic
same,Activity,Mus musculus [7],Non-toxic
same,Activity,Mus musculus [8],Non-toxic
same,inhibition at 6.25 µg/mL,[9],100%
same,Activity,Mus musculus [10],Non-toxic
same,Activity,Mus musculus [11],Non-toxic
same,Activity,Mus musculus [12],Non-toxic
same,Activity,Mus musculus [13],Non-toxic
same,Activity,Mus musculus [14],Non-toxic
same,Activity,Mus musculus [15],Non-toxic
same,Activity,Mus musculus [16],Non-toxic
same,inhibition,[17],inactive
same,Activity,Mus musculus [18],Non-toxic
same,Activity,Mus musculus [19],Non-toxic
same,inhibition,[20],inactive
same,Activity,Mus musculus [21],Non-toxic
same,Activity,Mus musculus [22],Non-toxic
same,Activity,Mus musculus [23],Non-toxic
same,inhibition,[24],inactive
same,Activity,Mus musculus [25],Non-toxic
same,CC50 at 72 h,[1],> 200 mg/L
same,inhibition,[26],inactive
same,Activity,Mus musculus [27],Non-toxic
same,MIC50,[4],25 mg/L
same,Activity,Mus musculus [28],Non-toxic
same,Activity,Mus musculus [29],Non-toxic
same,inhibition (INH),[30],45%
same,Activity,Mus musculus [31],Non-toxic
same,fractional inhibitory concentration index (FICI),[32],0.25
same,inhibition (INH),[33],70%
CCCCCCCCCCCC#Cc1c[nH]c(=O)nc1N,CC50 at 72 h,[1],> 200 mg/L
CO[C@H]1/C=C/O[C@@]2(C)Oc3c(C)c(O)c4c(O)c(c(/C=N/N5CCN(C)CC5)c(O)c4c3C2=O)NC(=O)/C(C)=C\C=C\[C@H](C)[C@H](O)[C@@H](C)[C@@H](O)[C@@H](C)[C@H](OC(C)=O)[C@@H]1C [RIFAMPIN],MIC90,Mycobacterium avium,2 mg/L
same,MIC90,[4],0.5 mg/L
NNC(=O)c1ccncc1 [ISONIAZID],Activity,[34],inactive
same,Activity,[35],inactive
same,Activity,[36],inactive
same,inhibition at 0.05 µg/mL,[37],10%

# Reference: ChEMBL document CHEMBL3784999, “Investigation of 4-amino-5-alkynylpyrimidine-2(1H)-ones as anti-mycobacterial agents” (Bioorg Med Chem, 2016)
